How the values were obtained:
Huh-7 [1] = assay: Cytotoxicity against human Huh-7 cells assessed as inhibition of cell growth incubated for 48 hrs by MTT assay; format: functional, cell-based; conditions: Huh-7, 48 h
MDA-MB-231 = assay: Cytotoxicity against human MDA-MB-231 cells assessed as inhibition of cell growth incubated for 48 hrs by MTT assay; format: functional, cell-based; conditions: MDA-MB-231, 48 h
MCF7 = assay: Cytotoxicity against human MCF7 cells assessed as inhibition of cell growth incubated for 48 hrs by MTT assay; format: functional, cell-based; conditions: MCF7, 48 h
A549 [2] = assay: Cytotoxicity against human A549 cells assessed as inhibition of cell growth incubated for 48 hrs by MTT assay; format: functional, cell-based; conditions: A549, 48 h
A549 [3] = assay: Cytotoxicity against cisplatin-resistant human A549 cells assessed as inhibition of cell growth incubated for 48 hrs by MTT assay; format: functional, cell-based; conditions: A549, 48 h
[4] = Resistance factor, ratio of IC50 for cisplatin-resistant human A549 cells to IC50 for human A549 cells; format: functional
Huh-7 [5] = assay: Cytotoxicity against human Huh-7 cells assessed as inhibition of cell growth measured after 24 hrs by MTT assay; format: functional, cell-based; conditions: Huh-7, 24 h
L02 = assay: Cytotoxicity against human HL7702 cells assessed as inhibition of cell growth measured after 24 hrs by MTT assay; format: cell-based; conditions: L02, 24 h
[6] = Selectivity index, ratio of IC50 for human HL7702 cells to IC50 for human HepG2 cells; format: toxicity; conditions: HL7702 cells and HepG2 cells, read-out: Ratio IC50
[7] = Selectivity index, ratio of IC50 for human HL7702 cells to IC50 for human Huh-7 cells; format: toxicity; conditions: HL7702 cells and Huh-7 cells, read-out: Ratio IC50
[8] = Antitumor activity against human HCC cells xenografted in BALB/c mouse assessed as inhibition of tumor weight at 5 mg/kg, iv administered once daily for 7 days; format: functional; conditions: 168 h, time 7 day
[9] = Antimetastatic activity against human HCC cells xenografted in BALB/c mouse assessed as reduction lung metastatic nodules at 5 mg/kg, iv administered once every 2 days for 14 days; format: functional; conditions: 336 h, time 14 day
HepG2 = assay: Cytotoxicity against human HepG2 cells assessed as inhibition of cell growth incubated for 48 hrs by MTT assay; format: functional, cell-based; conditions: HepG2, 48 h

SMILES | IC50 (Huh-7 [1]) | IC50 (MDA-MB-231) | IC50 (MCF7) | IC50 (A549 [2]) | IC50 (A549 [3]) | Ratio IC50 [4] | IC50 (Huh-7 [5]) | IC50 (L02) | selectivity ratio [6] | selectivity ratio [7] | inhibition in vivo at 5 mg/kg [8] | inhibition in vivo at 5 mg/kg [9] | IC50 (HepG2)
CN(C)CCN1C(=O)c2cccc3cc(N)cc(c23)C1=O [AMONAFIDE] | 8.52 µM | 15.2 µM | 10.9 µM | 23.5 µM | 9.56 µM | 0.41 | 8.52 µM | 11.6 µM | 1.23 | 1.36 | 46.9% | 55.8% | 
CCCNCCCNCCCNCCCN1C(=O)c2cccc3cc(NC(=O)CN)cc(c23)C1=O | 14.9 µM | > 30 µM | > 30 µM | > 30 µM | > 30 µM |  |  |  |  |  |  |  | > 30 µM

— ChEMBL document CHEMBL4842322, “A naphthalimide-polyamine conjugate preferentially accumulates in hepatic carcinoma metastases as a lysosome-targeted antimetastatic agent” (Eur J Med Chem, 2021)
